Columns and labels:
Assay in all cases: combination Emax (second highest fraction inhibited in the dose matrix, 72 h); higher = more inhibition; extreme values may be limits of the assay
CAL-78 (Chondrosarcoma) = tested on: CAL-78 (Chondrosarcoma)
Outline: (§1)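 Cell lines in DMEM/F12 or RPMI with 10% FBS were plated in 1536-well plates, held 24 hours at 37°C, 5% CO2, then given two-drug dose matrices for 72 hours (DMSO typically 0.2%). Viability was read by CellTiter-Glo 2.0 luminescence and scaled as inhibition from 0 (vehicle wells) to 1 (blank wells). Combination Emax is the second-highest inhibition in the matrix; Bliss excess is observed combination effect minus expected EA + EB − EA·EB, EA and EB being single-agent effects.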

[1] = tested on: CFPAC-1 (Pancreatic Carcinoma)
Outline: as §1

[2] = tested on: COR-L23 (Non-Small Cell Lung Carcinoma)
Outline: as §1

[3] = tested on: COR-L95 (Small Cell Lung Carcinoma)
Outline: as §1

ES7 (Ewing's Sarcoma) = tested on: ES7 (Ewing's Sarcoma)
Outline: as §1

[4] = tested on: G-292-Clone-A141B1 (Osteosarcoma)
Outline: as §1

[5] = tested on: HCC2157 (Breast Carcinoma)
Outline: as §1

[6] = tested on: HPAC (Pancreatic Carcinoma)
Outline: as §1

[7] = tested on: HT-29 (Colorectal Carcinoma)
Outline: as §1

J82 (Bladder Carcinoma) = tested on: J82 (Bladder Carcinoma)
Outline: as §1

[8] = tested on: KARPAS-620 (Plasma Cell Myeloma)
Outline: as §1

[9] = tested on: LU-99A (Non-Small Cell Lung Carcinoma)
Outline: as §1

[10] = tested on: MDA-MB-231 (Breast Carcinoma)
Outline: as §1

[11] = tested on: NALM-6 (B-Lymphoblastic Leukemia)
Outline: as §1

[12] = tested on: SNU-C5 (Colorectal Carcinoma)
Outline: as §1

[13] = tested on: SUIT-2 (Pancreatic Carcinoma)
Outline: as §1

[14] = tested on: SW1088 (Low Grade Glioma)
Outline: as §1

[15] = tested on: SW1783 (Low Grade Glioma)
Outline: as §1

[16] = tested on: TE-5 (Esophageal Squamous Cell Carcinoma)
Outline: as §1

[17] = tested on: TGBC24TKB (Biliary Tract Carcinoma)
Outline: as §1

Row | Structure (SMILES) | combination Emax (CAL-78 (Chondrosarcoma)) | combination Emax [1] | combination Emax [2] | combination Emax [3] | combination Emax (ES7 (Ewing's Sarcoma)) | combination Emax [4] | combination Emax [5] | combination Emax [6] | combination Emax [7] | combination Emax (J82 (Bladder Carcinoma)) | combination Emax [8] | combination Emax [9] | combination Emax [10] | combination Emax [11] | combination Emax [12] | combination Emax [13] | combination Emax [14] | combination Emax [15] | combination Emax [16] | combination Emax [17]
1 | CC1(C)CCC(CN2CCN(c3ccc(C(=O)NS(=O)(=O)c4ccc(NCC5CCOCC5)c([N+](=O)[O-])c4)c(Oc4cnc5[nH]ccc5c4)c3)CC2)=C(c2ccc(Cl)cc2)C1 [Venetoclax] + C[C@@H](Nc1cc(F)cc(F)c1)c1cc(C(=O)N(C)C)cc2c(=O)cc(N3CCOCC3)oc12 [AZD8186] (first compound max 1 µM, 7x7, partner max 3 µM) | 0.212 | 0.255 | 0.054 | 0.782 | 0.904 | 0.296 | 0.919 | 0.211 | 0.132 | 0.14 | 1 | 0.234 | 0.137 | 0.866 | 0.166 | 0.0137 | 0.493 | 0.336 | 0.375 | 0.169
2 | Cc1cc2ncnn2cc1Nc1ncc2c(n1)n(C1CCOCC1)c(=O)n2C [AZD7648] + C=CCn1c(=O)c2cnc(Nc3ccc(N4CCN(C)CC4)cc3)nc2n1-c1cccc(C(C)(C)O)n1 [AZD1775] (first compound max 10 µM, partner max 1 µM) | 0.458 | 0.444 | 0.36 | 0.583 | 0.541 | 0.295 | 0.899 | 0.748 | 0.816 | 0.244 | 0.597 | 0.563 | 0.434 | 0.898 | 0.609 | 0.656 | 0.504 | 0.322 | 0.515 | 0.786
3 | C=CCn1c(=O)c2cnc(Nc3ccc(N4CCN(C)CC4)cc3)nc2n1-c1cccc(C(C)(C)O)n1 [AZD1775] + C[C@@H]1COCCN1C2=NC(=NC(=C2)C3(CC3)[S@](=N)(=O)C)C4=C5C=CNC5=NC=C4 [AZD6738] (first compound max 1 µM, partner max 10 µM) | 0.839 | 0.536 | 0.595 | 0.737 | 0.903 | 0.354 | 0.983 | 0.705 | 0.858 | 0.414 | 0.753 | 0.694 | 0.84 | 0.971 | 0.794 | 0.728 | 0.684 | 0.41 | 0.577 | 0.832
4 | Cc1c2c(nn1C)CSCc1cc(n(C)n1)CSc1cc(c3ccccc3c1)OCCCc1c(C(=O)O)n(C)c3c-2c(Cl)ccc13 [AZD5991] + CC1(C)CCC(CN2CCN(c3ccc(C(=O)NS(=O)(=O)c4ccc(NCC5CCOCC5)c([N+](=O)[O-])c4)c(Oc4cnc5[nH]ccc5c4)c3)CC2)=C(c2ccc(Cl)cc2)C1 [Venetoclax] (first compound max 1 µM, 7x7, partner max 1 µM) | 0.796 | 0.143 | 0.164 | 0.914 | 0.893 | 0.184 | 0.985 | 0.244 | 0.189 | 0.164 | 1 | 0.111 | 0.216 | 0.949 | 0.204 | 0.209 | 0.248 | 0.444 | 0.525 | 0.304
5 | CC1(C)CCC(CN2CCN(c3ccc(C(=O)NS(=O)(=O)c4ccc(NCC5CCOCC5)c([N+](=O)[O-])c4)c(Oc4cnc5[nH]ccc5c4)c3)CC2)=C(c2ccc(Cl)cc2)C1 [Venetoclax] + C[C@@H]1COCCN1C2=NC(=NC(=C2)C3(CC3)[S@](=N)(=O)C)C4=C5C=CNC5=NC=C4 [AZD6738] (first compound max 1 µM, 7x7, partner max 10 µM) | 0.605 | 0.554 | 0.585 | 0.838 | 0.941 | 0.344 | 0.877 | 0.611 | 0.865 | 0.483 | 0.996 | 0.619 | 0.624 | 0.994 | 0.784 | 0.471 | 0.684 | 0.503 | 0.593 | 0.705
6 | NC1(C(=O)N[C@@H](CCO)c2ccc(Cl)cc2)CCN(c2ncnc3[nH]ccc23)CC1 [Capivasertib] + C[C@@H]1COCCN1C2=NC(=NC(=C2)C3(CC3)[S@](=N)(=O)C)C4=C5C=CNC5=NC=C4 [AZD6738] (first compound max 10 µM, 7x7, partner max 10 µM) | 0.663 | 0.567 | 0.707 | 0.542 | 0.889 | 0.538 | 1 | 0.545 | 0.834 | 0.65 | 0.757 | 0.63 | 0.74 | 0.984 | 0.811 | 0.493 | 0.707 | 0.679 | 0.721 | 0.711
